Source: patent publication US20230065740A1, “CYCLIN-DEPENDENT KINASE INHIBITORS” (SPV THERAPEUTICS INC., priority 2018, published 2023)

Columns and labels:
CDK6-CYCLIND3 = target: T1, CDK6-CYCLIND3 (Homo sapiens, UniProt Q00534); test: Microfluidic LabChip kinase inhibition assay, CDK6-CyclinD3; format: biochemical; settings: Table 2; 300 μM ATP, 2 nM enzyme; read-out: CDK6 IC50
T1 construct: purchased Carna

CDK4-CYCLIND1 = CDK4-CYCLIND1 (Homo sapiens, UniProt P11802); test: Microfluidic LabChip kinase inhibition assay, CDK4-CyclinD1; settings: CDK4 IC50 (μM), Table 2; 200 μM ATP, 1 nM enzyme
CDK4-CYCLIND1, sequence (P11802 whole entry): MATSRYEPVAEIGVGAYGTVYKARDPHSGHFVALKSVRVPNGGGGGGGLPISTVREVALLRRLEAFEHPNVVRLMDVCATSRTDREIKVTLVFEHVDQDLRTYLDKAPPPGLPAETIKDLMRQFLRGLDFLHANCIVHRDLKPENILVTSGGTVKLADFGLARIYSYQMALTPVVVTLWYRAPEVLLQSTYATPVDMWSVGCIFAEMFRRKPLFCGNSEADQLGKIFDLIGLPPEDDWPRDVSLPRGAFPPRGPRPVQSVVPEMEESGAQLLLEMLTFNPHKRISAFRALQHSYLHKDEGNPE
CDK4-CYCLIND1, sequence (P24385 whole entry partner): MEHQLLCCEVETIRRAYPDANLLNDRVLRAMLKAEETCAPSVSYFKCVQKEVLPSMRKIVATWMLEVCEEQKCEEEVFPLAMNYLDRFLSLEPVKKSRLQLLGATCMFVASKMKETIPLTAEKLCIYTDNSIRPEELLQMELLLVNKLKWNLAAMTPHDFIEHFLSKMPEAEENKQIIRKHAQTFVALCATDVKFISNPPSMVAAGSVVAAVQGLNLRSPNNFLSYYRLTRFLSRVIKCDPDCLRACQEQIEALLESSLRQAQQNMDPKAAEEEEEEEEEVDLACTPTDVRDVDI

T1 sequence (Q00534 whole entry): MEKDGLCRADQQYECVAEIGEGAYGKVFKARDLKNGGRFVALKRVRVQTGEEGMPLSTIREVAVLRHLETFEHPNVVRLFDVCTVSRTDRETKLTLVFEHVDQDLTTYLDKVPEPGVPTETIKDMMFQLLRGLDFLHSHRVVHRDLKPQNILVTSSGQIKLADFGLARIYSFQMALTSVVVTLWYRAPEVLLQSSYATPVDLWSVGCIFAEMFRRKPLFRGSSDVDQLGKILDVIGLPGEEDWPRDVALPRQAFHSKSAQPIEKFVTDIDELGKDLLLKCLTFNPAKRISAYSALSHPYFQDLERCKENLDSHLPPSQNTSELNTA
T1 sequence (P30281 whole entry partner): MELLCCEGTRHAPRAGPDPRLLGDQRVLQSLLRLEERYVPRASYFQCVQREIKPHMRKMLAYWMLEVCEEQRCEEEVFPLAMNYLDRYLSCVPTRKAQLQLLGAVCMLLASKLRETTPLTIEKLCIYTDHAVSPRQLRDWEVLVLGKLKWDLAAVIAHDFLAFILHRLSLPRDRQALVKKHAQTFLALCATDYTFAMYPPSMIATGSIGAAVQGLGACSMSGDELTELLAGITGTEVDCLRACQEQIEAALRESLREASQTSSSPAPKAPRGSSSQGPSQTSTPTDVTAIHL

Row | SMILES | IC50 (CDK6-CYCLIND3) [nM] | IC50 (CDK4-CYCLIND1) [µM]
1 | CN1CCN(c2ccc(Nc3ncc4c(n3)N(C3CCCC3)C3(CCN(Cc5ccccc5)C3=O)C4)c(F)c2)CC1 (stereo not drawn) [Compound C41, 1-benzyl-7′-cyclopentyl-2′-((2-fluoro-4-(4-methylpiperazin-1-yl)phenyl)amino)-5′,7′-dihydrospiro[pyrrolidine-3,6′-pyrrolo[2,3-d]pyrimidin]-2-one] | 12800 | 5.98
2 | CN1CCN(c2ccc(Nc3ncc4c(n3)N(C3CCCC3)C3(CCCN(Cc5ccccc5)C3=O)C4)c(F)c2)CC1 (stereo not drawn) [Compound C42, 1-benzyl-7′-cyclopentyl-2′-((2-fluoro-4-(4-methylpiperazin-1-yl)phenyl)amino)-5′,7′-dihydrospiro[piperidine-3,6′-pyrrolo[2,3-d]pyrimidin]-2-one] | 12100 | 4.46
3 | O=C1NCCC12Cc1cnc(Nc3ccc(N4CCNCC4)cc3)nc1N2C1CCCC1 (stereo not drawn) [Compound C43, 7′-cyclopentyl-2′-((4-(piperazin-1-yl)phenyl)amino)-5′,7′-dihydrospiro[pyrrolidine-3,6′-pyrrolo[2,3-d]pyrimidin]-2-one] | 423 | 0.0633
4 | O=C1NCCCC12Cc1cnc(Nc3cc(C(F)(F)F)c(N4CCNCC4)cn3)nc1N2C1CCCC1 (stereo not drawn) [Compound C44, 7′-cyclopentyl-2′-((5-(piperazin-1-yl)-4-(trifluoromethyl)pyridin-2-yl)amino)-5′,7′-dihydrospiro[piperidine-3,6′-pyrrolo[2,3-d]pyrimidin]-2-one] | > 30000 | > 30
5 | CN1CCN(c2ccc(Nc3ncc4c(n3)N(C3CCCC3)C3(CCNC3=O)C4)cc2)CC1 (stereo not drawn) [Compound C45, 7′-cyclopentyl-2′-((4-(4-methylpiperazin-1-yl)phenyl)amino)-5′,7′-dihydrospiro[pyrrolidine-3,6′-pyrrolo[2,3-d]pyrimidin]-2-one] | 574 | 0.105
6 | CC(C)N1CCN(c2ccc(Nc3ncc4c(n3)N(C3CCCC3)C3(CCNC3=O)C4)cc2)CC1 (stereo not drawn) [Compound C46, 7′-cyclopentyl-2′-((4-(4-isopropylpiperazin-1-yl)phenyl)amino)-5′,7′-dihydrospiro[pyrrolidine-3,6′-pyrrolo[2,3-d]pyrimidin]-2-one] | 394 | 0.0701
7 | O=C1NCCC12Cc1cnc(Nc3ccc(N4CCNCC4)c(F)c3)nc1N2C1CCCC1 (stereo not drawn) [Compound C47, 7′-cyclopentyl-2′-((3-fluoro-4-(piperazin-1-yl)phenyl)amino)-5′,7′-dihydrospiro[pyrrolidine-3,6′-pyrrolo[2,3-d]pyrimidin]-2-one] | 179 | 0.0315
8 | CN1CCN(c2ccc(Nc3ncc4c(n3)N(C3CCCC3)C3(CCNC3=O)C4)cc2F)CC1 (stereo not drawn) [Compound C48, 7′-cyclopentyl-2′-((3-fluoro-4-(4-methylpiperazin-1-yl)phenyl)amino)-5′,7′-dihydrospiro[pyrrolidine-3,6′-pyrrolo[2,3-d]pyrimidin]-2-one] | 129 | 0.0161
9 | CC(C)N1CCN(c2ccc(Nc3ncc4c(n3)N(C3CCCC3)C3(CCNC3=O)C4)cc2F)CC1 (stereo not drawn) [Compound C49, 7′-cyclopentyl-2′-((3-fluoro-4-(4-isopropylpiperazin-1-yl)phenyl)amino)-5′,7′-dihydrospiro[pyrrolidine-3,6′-pyrrolo[2,3-d]pyrimidin]-2-one] | 175 | 0.0298
10 | O=C1NCCC12Cc1cnc(Nc3ccc(N4CCNCC4)cc3F)nc1N2C1CCCC1 (stereo not drawn) [Compound C50, 7′-cyclopentyl-2′-((2-fluoro-4-(piperazin-1-yl)phenyl)amino)-5′,7′-dihydrospiro[pyrrolidine-3,6′-pyrrolo[2,3-d]pyrimidin]-2-one] | 4210 | 0.888
11 | CN1CCN(c2ccc(Nc3ncc4c(n3)N(C3CCCC3)C3(CCNC3=O)C4)c(F)c2)CC1 (stereo not drawn) [Compound C51, 7′-cyclopentyl-2′-((2-fluoro-4-(4-methylpiperazin-1-yl)phenyl)amino)-5′,7′-dihydrospiro[pyrrolidine-3,6′-pyrrolo[2,3-d]pyrimidin]-2-one] | > 30000 | > 30
12 | CC(C)N1CCN(c2ccc(Nc3ncc4c(n3)N(C3CCCC3)C3(CCNC3=O)C4)c(F)c2)CC1 (stereo not drawn) [Compound C52, 7′-cyclopentyl-2′-((2-fluoro-4-(4-isopropylpiperazin-1-yl)phenyl)amino)-5′,7′-dihydrospiro[pyrrolidine-3,6′-pyrrolo[2,3-d]pyrimidin]-2-one] | > 30000 | > 30
13 | O=C1NCCC12Cc1cnc(Nc3ccc(N4CCNCC4)nc3)nc1N2C1CCCC1 (stereo not drawn) [Compound C53, 7′-cyclopentyl-2′-((6-(piperazin-1-yl)pyridin-3-yl)amino)-5′,7′-dihydrospiro[pyrrolidine-3,6′-pyrrolo[2,3-d]pyrimidin]-2-one] | 260 | 0.0658
14 | CN1CCN(c2ccc(Nc3ncc4c(n3)N(C3CCCC3)C3(CCNC3=O)C4)cn2)CC1 (stereo not drawn) [Compound C54, 7′-cyclopentyl-2′-((6-(4-methylpiperazin-1-yl)pyridin-3-yl)amino)-5′,7′-dihydrospiro[pyrrolidine-3,6′-pyrrolo[2,3-d]pyrimidin]-2-one] | 414 | 0.0926
15 | CC(C)N1CCN(c2ccc(Nc3ncc4c(n3)N(C3CCCC3)C3(CCNC3=O)C4)cn2)CC1 (stereo not drawn) [Compound C55, 7′-cyclopentyl-2′-((6-(4-isopropylpiperazin-1-yl)pyridin-3-yl)amino)-5′,7′-dihydrospiro[pyrrolidine-3,6′-pyrrolo[2,3-d]pyrimidin]-2-one] | 221 | 0.053
16 | O=C1NCCC12Cc1cnc(Nc3ccc(C4=CCNCC4)cn3)nc1N2C1CCCC1 (stereo not drawn) [Compound C56, 7′-cyclopentyl-2′-((1′,2′,3′,6′-tetrahydro-[3,4′-bipyridin]-6-yl)amino)-5′,7′-dihydrospiro[pyrrolidine-3,6′-pyrrolo[2,3-d]pyrimidin]-2-one] | 803 | 0.372
17 | CC(C)N1CC=C(c2ccc(Nc3ncc4c(n3)N(C3CCCC3)C3(CCNC3=O)C4)nc2)CC1 (stereo not drawn) [Compound C57, 7′-cyclopentyl-2′-((1′-isopropyl-1′,2′,3′,6′-tetrahydro-[3,4′-bipyridin]-6-yl)amino)-5′,7′-dihydrospiro[pyrrolidine-3,6′-pyrrolo[2,3-d]pyrimidin]-2-one] | 952 | 0.387
18 | O=C1NCCC12Cc1cnc(Nc3ccc(N4CCOCC4)c(F)c3)nc1N2C1CCCC1 (stereo not drawn) [Compound C58, 7′-cyclopentyl-2′-((3-fluoro-4-morpholinophenyl)amino)-5′,7′-dihydrospiro[pyrrolidine-3,6′-pyrrolo[2,3-d]pyrimidin]-2-one] | 932 | 0.222
19 | CN(C)CCOc1ccc(Nc2ncc3c(n2)N(C2CCCC2)C2(CCNC2=O)C3)cc1 (stereo not drawn) [Compound C59, 7′-cyclopentyl-2′-((4-(2-(dimethylamino)ethoxy)phenyl)amino)-5′,7′-dihydrospiro[pyrrolidine-3,6′-pyrrolo[2,3-d]pyrimidin]-2-one] | 630 | 0.142
20 | CN(C)CCOc1ccc(Nc2ncc3c(n2)N(C2CCCC2)C2(CCNC2=O)C3)nc1 (stereo not drawn) [Compound C60, 7′-cyclopentyl-2′-((5-(2-(dimethylamino)ethoxy)pyridin-2-yl)amino)-5′,7′-dihydrospiro[pyrrolidine-3,6′-pyrrolo[2,3-d]pyrimidin]-2-one] | 3420 | 1.5
21 | CN(C)CCOc1ccc(Nc2ncc3c(n2)N(C2CCCC2)C2(CCNC2=O)C3)cn1 (stereo not drawn) [Compound C61, 7′-cyclopentyl-2′-((6-(2-(dimethylamino)ethoxy)pyridin-3-yl)amino)-5′,7′-dihydrospiro[pyrrolidine-3,6′-pyrrolo[2,3-d]pyrimidin]-2-one] | 793 | 0.19
22 | COc1cc(Nc2ncc3c(n2)N(C2CCCC2)C2(CCNC2=O)C3)ccc1N1CCN(C(C)C)CC1 (stereo not drawn) [Compound C62, 7′-cyclopentyl-2′-((4-(4-isopropylpiperazin-1-yl)-3-methoxyphenyl)amino)-5′,7′-dihydrospiro[pyrrolidine-3,6′-pyrrolo[2,3-d]pyrimidin]-2-one] | 1950 | 0.288
23 | Cc1cc(Nc2ncc3c(n2)N(C2CCCC2)C2(CCNC2=O)C3)ccc1N1CCN(C(C)C)CC1 (stereo not drawn) [Compound C63, 7′-cyclopentyl-2′-((4-(4-isopropylpiperazin-1-yl)-3-methylphenyl)amino)-5′,7′-dihydrospiro[pyrrolidine-3,6′-pyrrolo[2,3-d]pyrimidin]-2-one] | 899 | 0.172
24 | CN(C)C(=O)c1cc2cnc(Nc3ccc(N4CCN(C#N)CC4)cn3)nc2n1C1CCCC1 [Compound C64, 2-((5-(4-cyanopiperazin-1-yl)pyridin-2-yl)amino)-7-cyclopentyl-N,N-dimethyl-7H-pyrrolo[2,3-d]pyrimidine-6-carboxamide] | > 30000 | > 30
25 | CN1C(=O)CC2(Cc3cnc(Nc4ccc(N5CCNCC5)cn4)nc3N2C2CCCC2)C1=O (stereo not drawn) [Compound C65, 7′-cyclopentyl-1-methyl-2′-((5-(piperazin-1-yl)pyridin-2-yl)amino)-5′,7′-dihydrospiro[pyrrolidine-3,6′-pyrrolo[2,3-d]pyrimidine]-2,5-dione] | 15400 | 12.3
26 | CN1CCN(c2ccc(Nc3ncc4c(n3)N(C3CCCC3)C3(CC(=O)N(C)C3=O)C4)nc2)CC1 (stereo not drawn) [Compound C66, 7′-cyclopentyl-1-methyl-2′-((5-(4-methylpiperazin-1-yl)pyridin-2-yl)amino)-5′,7′-dihydrospiro[pyrrolidine-3,6′-pyrrolo[2,3-d]pyrimidine]-2,5-dione] | > 30000 | 29.8
27 | CC(C)N1CCN(c2ccc(Nc3ncc4c(n3)N(C3CCCC3)C3(CC(=O)N(C)C3=O)C4)nc2)CC1 (stereo not drawn) [Compound C67, 7′-cyclopentyl-2′-((5-(4-isopropylpiperazin-1-yl)pyridin-2-yl)amino)-1-methyl-5′,7′-dihydrospiro[pyrrolidine-3,6′-pyrrolo[2,3-d]pyrimidine]-2,5-dione] | > 30000 | 26.7
